Source: patent US5100875A, “Novel peptides having plateler aggregation inhibitory activity” (Institut National de la Sante et de la Recherche Medicale …, priority 1986, dated 1992)
Residues, ends and D or L forms follow the SMILES beside them.

Key:
platelets = assay: Inhibition of platelet aggregation (ADP-induced, washed platelets with fibrinogen); format: cell-based; settings: isolated human platelets, ADP 5×10^-6 M, fibrinogen 1.1×10^-6 M
Method: The effect of the synthetic peptides on platelet aggregation was studied on platelets isolated as previously described for the study of the binding to fibrinogen. The stimulation of the platelets was also brought about by 5×10^-6 M ADP and the assay was carried out in the presence of 1.1×10^-6 M fibrinogen and of […] CaCl2.

[1] = target: T1, platelet fibrinogen receptor (Homo sapiens, UniProt P05106+P08514); assay: Inhibition of platelet-fibrinogen binding (125I-fibrinogen, ADP-stimulated washed platelets); settings: 4×10^7 human platelets, 125I-fibrinogen 0.1×10^-6 M, ADP 5×10^-6 M, CaCl2 0.5 mM, 15 mn incubation
T1 construct: endogenous in cells; host or cells: washed human blood platelets, stimulated with ADP
Method: The platelets were isolated from 60 ml of human blood collected in the anticoagulant buffer ACD in a ratio of 1 volume of ACD to 6 volumes of blood.
The blood is then centrifuged for 20 mn at a 1,000 r/mn (JOUAN E 96 centrifuge) at room temperature.
The PRP (plasma rich in platelets) is decanted and treated with 0.1 μM PGE1, then centrifuged for 15 mn at 2,000 r/mn.
The platelets obtained in the pellet are then taken up in 1 ml of Tyrode buffer-albumin, pH 7.2, prepared with the following composition:
The platelets are washed on a column of Sepharose CL 2B using Tyrode buffer-albumin, pH 7.2, then the platelets are recovered and diluted to a concentration of 2×10^8 platelets/ml.
The assays are carried out on 4×10^7 platelets in the presence of CaCl2 (0.5 mM), ^125 I-fibrinogen 0.1×10^-6 M) and different concentrations of peptide, and the stimulation of the platelets is induced by ADP (5×10^-6 M). After incubation for 15 mn and deposition on a 15% saccharose solution the ^125 I-fibrinogen-plateletcomplex is isolated by centrifugation at 12,000 r/mn for 2 mn.
This table also presents the sequence of the peptides.

T1 sequence (P08514 32-887 limits assumed): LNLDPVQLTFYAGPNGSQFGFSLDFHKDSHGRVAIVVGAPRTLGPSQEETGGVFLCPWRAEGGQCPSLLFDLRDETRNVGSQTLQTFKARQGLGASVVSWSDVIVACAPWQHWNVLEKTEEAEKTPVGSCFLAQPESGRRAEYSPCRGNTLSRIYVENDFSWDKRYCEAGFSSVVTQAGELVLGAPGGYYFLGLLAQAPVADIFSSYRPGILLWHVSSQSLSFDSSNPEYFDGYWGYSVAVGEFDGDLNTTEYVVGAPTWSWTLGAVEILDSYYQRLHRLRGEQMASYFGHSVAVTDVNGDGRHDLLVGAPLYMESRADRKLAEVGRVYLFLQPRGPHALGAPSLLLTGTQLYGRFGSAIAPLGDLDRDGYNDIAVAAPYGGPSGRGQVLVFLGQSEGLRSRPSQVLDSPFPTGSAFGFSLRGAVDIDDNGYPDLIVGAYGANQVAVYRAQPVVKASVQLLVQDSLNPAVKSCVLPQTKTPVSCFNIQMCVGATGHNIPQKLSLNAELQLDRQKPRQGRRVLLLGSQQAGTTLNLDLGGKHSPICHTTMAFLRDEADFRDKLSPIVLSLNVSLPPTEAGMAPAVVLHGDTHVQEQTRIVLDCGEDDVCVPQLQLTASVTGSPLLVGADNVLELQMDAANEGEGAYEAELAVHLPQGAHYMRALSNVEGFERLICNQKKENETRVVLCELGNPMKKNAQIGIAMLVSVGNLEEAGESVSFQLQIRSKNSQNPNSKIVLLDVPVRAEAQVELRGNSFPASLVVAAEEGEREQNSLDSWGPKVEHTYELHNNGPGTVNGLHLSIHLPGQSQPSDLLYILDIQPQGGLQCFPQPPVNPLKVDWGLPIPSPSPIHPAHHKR
T1 sequence (P08514 891-1039 partner limits assumed): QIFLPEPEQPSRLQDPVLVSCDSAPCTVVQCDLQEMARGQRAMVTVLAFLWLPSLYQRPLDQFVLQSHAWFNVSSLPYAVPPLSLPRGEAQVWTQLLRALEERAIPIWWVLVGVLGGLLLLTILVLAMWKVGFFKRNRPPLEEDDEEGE
T1 sequence (P05106 27-788): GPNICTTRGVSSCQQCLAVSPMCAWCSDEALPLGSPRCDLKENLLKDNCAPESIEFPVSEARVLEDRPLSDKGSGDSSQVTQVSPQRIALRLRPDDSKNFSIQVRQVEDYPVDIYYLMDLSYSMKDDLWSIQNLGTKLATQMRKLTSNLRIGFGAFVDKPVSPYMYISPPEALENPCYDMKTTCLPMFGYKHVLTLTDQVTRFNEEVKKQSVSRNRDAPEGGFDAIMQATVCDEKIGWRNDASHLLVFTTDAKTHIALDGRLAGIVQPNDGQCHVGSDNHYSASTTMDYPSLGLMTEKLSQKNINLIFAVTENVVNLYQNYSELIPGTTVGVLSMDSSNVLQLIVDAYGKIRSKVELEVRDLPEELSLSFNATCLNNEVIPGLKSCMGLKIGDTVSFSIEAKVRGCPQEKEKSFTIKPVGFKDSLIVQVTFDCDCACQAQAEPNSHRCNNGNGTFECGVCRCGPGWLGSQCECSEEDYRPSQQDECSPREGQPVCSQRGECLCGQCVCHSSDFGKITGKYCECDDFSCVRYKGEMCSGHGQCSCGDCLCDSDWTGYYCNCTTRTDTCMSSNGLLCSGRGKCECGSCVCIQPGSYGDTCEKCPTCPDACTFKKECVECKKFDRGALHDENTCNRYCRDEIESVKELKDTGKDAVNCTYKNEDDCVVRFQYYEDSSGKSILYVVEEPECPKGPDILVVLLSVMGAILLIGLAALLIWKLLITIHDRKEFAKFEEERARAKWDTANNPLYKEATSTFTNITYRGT

Row | Compound | IC50 (platelets) | IC50 [1]
1 | H-LRGDF-OH [LRGDF, H-Leu-Arg-Gly-Asp-Phe-OH] | 20 µM | 20 µM
2 | N=C(N)NCCC[C@H](N)C(=O)NCC(=O)N[C@@H](CC(=O)O)C(=O)N[C@@H](Cc1ccccc1)C(=O)O [RGDF, H-Arg-Gly-Asp-Phe-OH] (H-RGDF-OH) | 15 µM | 7 µM
3 | NC(N)=NCCC[C@H](N)C(=O)NCC(=O)N[C@@H](CC(=O)O)C(=O)N[C@@H](Cc1c[nH]c2ccccc12)C(=O)O [RGDW, H-Arg-Gly-Asp-Trp-OH] (H-RGDW-OH) | – | 3.6 µM
4 | N=C(N)NCCC[C@H](N)C(=O)NCC(=O)N[C@@H](CC(=O)O)C(=O)N[C@@H](Cc1c[nH]c2ccccc12)C(=O)O [RGDW, H-Arg-Gly-Asp-Trp-OH] (H-RGDW-OH) | 10 µM | –
